Measurements from PubChem BioAssay (NCI).
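Briefly, cells in 96-well plates were exposed to five compound concentrations for 48 h, and endpoints were estimated by linear interpolation. The concentration for full growth arrest is given as TGI.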

Key:
Experiment in all cases: NCI anticancer screen, dose series, 48 h
786-0 renal = test system: 786-0 renal
A498 renal = test system: A498 renal
A549 NSCLC = test system: A549 NSCLC
ACHN renal = test system: ACHN renal
CAKI-1 renal = test system: CAKI-1 renal
CCRF-CEM leukemia = test system: CCRF-CEM leukemia
COLO 205 colon = test system: COLO 205 colon
DLD-1 colon = test system: DLD-1 colon
DMS 114 small cell lung = test system: DMS 114 small cell lung
DMS 273 small cell lung = test system: DMS 273 small cell lung
EKVX NSCLC = test system: EKVX NSCLC
HCC-2998 colon = test system: HCC-2998 colon
HCT-116 colon = test system: HCT-116 colon
HCT-15 colon = test system: HCT-15 colon
HOP-18 NSCLC = test system: HOP-18 NSCLC
HOP-62 NSCLC = test system: HOP-62 NSCLC
HOP-92 NSCLC = test system: HOP-92 NSCLC
HT29 colon = test system: HT29 colon
IGROV1 ovarian = test system: IGROV1 ovarian
K-562 leukemia = test system: K-562 leukemia
KM12 colon = test system: KM12 colon
KM20L2 colon = test system: KM20L2 colon
LOX IMVI melanoma = test system: LOX IMVI melanoma
M14 melanoma = test system: M14 melanoma
M19-MEL melanoma = test system: M19-MEL melanoma
MALME-3M melanoma = test system: MALME-3M melanoma
MOLT-4 leukemia = test system: MOLT-4 leukemia
NCI-H226 lung = test system: NCI-H226 lung
NCI-H23 lung = test system: NCI-H23 lung
NCI-H460 lung = test system: NCI-H460 lung
OVCAR-3 ovarian = test system: OVCAR-3 ovarian
OVCAR-4 ovarian = test system: OVCAR-4 ovarian
OVCAR-5 ovarian = test system: OVCAR-5 ovarian
OVCAR-8 ovarian = test system: OVCAR-8 ovarian
RPMI-8226 leukemia = test system: RPMI-8226 leukemia
SF-268 CNS = test system: SF-268 CNS
SF-295 CNS = test system: SF-295 CNS
SF-539 CNS = test system: SF-539 CNS
SK-MEL-2 melanoma = test system: SK-MEL-2 melanoma
SK-MEL-28 melanoma = test system: SK-MEL-28 melanoma
SK-MEL-5 melanoma = test system: SK-MEL-5 melanoma
SK-OV-3 ovarian = test system: SK-OV-3 ovarian
SN12C renal = test system: SN12C renal
SNB-19 CNS = test system: SNB-19 CNS
SNB-75 CNS = test system: SNB-75 CNS
SNB-78 CNS = test system: SNB-78 CNS
SW-620 colon = test system: SW-620 colon
TK-10 renal = test system: TK-10 renal
U251 CNS = test system: U251 CNS
UACC-257 melanoma = test system: UACC-257 melanoma
UACC-62 melanoma = test system: UACC-62 melanoma
UO-31 renal = test system: UO-31 renal
XF 498 CNS = test system: XF 498 CNS
HL-60(TB) leukemia = test system: HL-60(TB) leukemia
LXFL 529 NSCLC = test system: LXFL 529 NSCLC
NCI-H522 lung = test system: NCI-H522 lung
RXF 393 renal = test system: RXF 393 renal
RXF-631 renal = test system: RXF-631 renal

Measured: TGI

O=C1/C(=C\c2ccccc2)c2ccccc2N1/N=C\c1ccccc1
> 100 µM: 786-0 renal | A498 renal | A549 NSCLC | ACHN renal | CAKI-1 renal | CCRF-CEM leukemia | COLO 205 colon | DLD-1 colon | DMS 114 small cell lung | DMS 273 small cell lung | EKVX NSCLC | HCC-2998 colon | HCT-116 colon | HCT-15 colon | HOP-18 NSCLC | HOP-62 NSCLC | HOP-92 NSCLC | HT29 colon | IGROV1 ovarian | K-562 leukemia | KM12 colon | KM20L2 colon | LOX IMVI melanoma | M14 melanoma | M19-MEL melanoma | MALME-3M melanoma | MOLT-4 leukemia | NCI-H226 lung | NCI-H23 lung | NCI-H460 lung | OVCAR-3 ovarian | OVCAR-4 ovarian | OVCAR-5 ovarian | OVCAR-8 ovarian | RPMI-8226 leukemia | SF-268 CNS | SF-295 CNS | SF-539 CNS | SK-MEL-2 melanoma | SK-MEL-28 melanoma | SK-MEL-5 melanoma | SK-OV-3 ovarian | SN12C renal | SNB-19 CNS | SNB-75 CNS | SNB-78 CNS | SW-620 colon | TK-10 renal | U251 CNS | UACC-257 melanoma | UACC-62 melanoma | UO-31 renal | XF 498 CNS

O=C(CC(=O)C1CCOC1=O)C(=O)Nc1ccc(Cl)cc1 (stereo not drawn)
> 100 µM: 786-0 renal | A498 renal | A549 NSCLC | ACHN renal | CAKI-1 renal | CCRF-CEM leukemia | COLO 205 colon | DLD-1 colon | DMS 114 small cell lung | DMS 273 small cell lung | EKVX NSCLC | HCC-2998 colon | HCT-116 colon | HCT-15 colon | HL-60(TB) leukemia | HOP-62 NSCLC | HOP-92 NSCLC | HT29 colon | IGROV1 ovarian | K-562 leukemia | KM12 colon | KM20L2 colon | LOX IMVI melanoma | LXFL 529 NSCLC | M14 melanoma | M19-MEL melanoma | MALME-3M melanoma | NCI-H226 lung | NCI-H23 lung | NCI-H460 lung | NCI-H522 lung | OVCAR-3 ovarian | OVCAR-4 ovarian | OVCAR-5 ovarian | OVCAR-8 ovarian | RPMI-8226 leukemia | RXF 393 renal | RXF-631 renal | SF-268 CNS | SF-295 CNS | SF-539 CNS | SK-MEL-2 melanoma | SK-MEL-28 melanoma | SK-MEL-5 melanoma | SK-OV-3 ovarian | SN12C renal | SNB-19 CNS | SNB-75 CNS | SNB-78 CNS | SW-620 colon | TK-10 renal | U251 CNS | UACC-257 melanoma | UACC-62 melanoma | UO-31 renal
